The METLIN SMRT retention time set (Domingo-Almenara et al. 2019)

test: gradient 5% acetonitrile 3 min, to 50% in 2 min, to 85% in 15 min, held 3 min, 100 µL/min; conditions: column: Zorbax Extend-C18 2.1 x 50 mm; eluents: water / acetonitrile, 0.1% formic acid
Method in brief: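 Retention times of pure standards were taken from adduct peaks that were selected by computer and manually inspected. Over 3 months, mixtures of ~100 molecules were run by HPLC–quadrupole time-of-flight mass spectrometry in positive and negative ionization mode. The Zorbax Extend-C18 column (2.1 × 50 mm, 1.8 μm) ran at 100 μL/min in water and acetonitrile, each containing 0.1% formic acid, with 40 μL dead volume and 900 μL dwell volume.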

| Compound | RP-LC retention time |
| --- | --- |
| Cc1ccc(-n2ccc(=O)c(-c3nc(-c4ccc(Br)cc4)no3)n2)cc1 | 1030 s |
| O=C(Cc1ccccc1)NCc1nc(-c2cccc(-c3ccn[nH]3)c2)no1 | 898 s |
| CC1Oc2ccc(-c3csc(NC(=O)c4ccncc4)n3)cc2N(C)C1=O (centres undefined) | 766 s |
| CS(=O)(=O)N1CCN(C(=O)C2CCCN(c3ccc(-c4ccc(F)cc4)nn3)C2)CC1 (centres undefined) | 611 s |
| COC(=O)c1sccc1NC(=O)N1CCCC1c1cccc(C)c1 (centres undefined) | 1120 s |
| Cc1oc(-c2[nH]ncc2C(=O)N2CCCC2)cc1S(=O)(=O)NCc1ccccc1 | 700 s |
| COc1ccc(NC(=O)C2CCCN(c3nnc4ccccn34)C2)cc1 (centres undefined) | 637 s |
| O=C(c1cn(-c2cc(N3CCSCC3)ncn2)cn1)N1CC=C(c2ccccc2)CC1 | 992 s |
| CCCN1C(=O)COc2ccc(-c3noc(CCc4ccccc4)n3)cc21 | 1150 s |
| O=C(C1=CN(c2ccc(F)cc2)c2cc(F)ccc2S1(=O)=O)N1CCCCC1 | 858 s |
| CNC(=O)c1cc2nc(N(C)C)n(-c3ccc(OC)cc3)c2s1 | 888 s |
| Cc1ccc(C)c(C(=O)Nc2cnn(-c3ncc(N(C)C)cn3)c2)c1 | 788 s |
| O=c1c2sccc2n(Cc2nc(-c3ccc(Cl)cc3)no2)c(=O)n1-c1ccccc1F | 1070 s |
| CC1CCCN(c2nn(CC(=O)Nc3ccccc3Cl)c(=O)c3ccccc23)C1 (centres undefined) | 1180 s |
| COc1cccc(-c2nc(-c3ccc4oc(C)nc4c3)no2)c1 | 1110 s |
| O=C(Nc1nccs1)c1cc(N2C(=O)C3C4CCC(C4)C3C2=O)ccc1Cl (centres undefined) | 742 s |
| CCCNC(=O)c1cnn(-c2cc(-c3nc(C4CC4)no3)ccn2)c1C | 911 s |
| COc1ccc(C)cc1NC(=O)c1cc(C(C)C)n2nccc2n1 | 1270 s |
| CCOC(=O)c1nc(NCc2cc(OC)ccc2OC)c2ccccc2n1 | 768 s |
| CC1(C)SC2C(NC(=O)[C@H](NC(=O)N3CCNC3=O)c3ccccc3)C(=O)N2C1C(=O)O (some centres undefined) | 709 s |
| Cc1ccc(Cn2cc(-c3noc(-c4ccc(N(C)C)cc4)n3)nn2)cc1 | 1070 s |
| Cc1cc(C)n2nc(SCC(=O)NCCC(C)C)nc2n1 | 690 s |
| CCCN1C(=O)c2c(C(=O)NCCCc3ccccc3)ncn2CC1(C)C(=O)NC1CCCC1 (centres undefined) | 867 s |

| Compound | RP-LC retention time |
| --- | --- |
| Cc1ccc(-n2nnnc2CNC(=O)c2ccc([N+](=O)[O-])o2)cc1C | 745 s |
| Cc1nc(-c2ccccc2)sc1C(=O)Nc1nc(-c2ccc(F)cc2)cs1 | 1250 s |
| CCOc1cccc(C2c3[nH]c4ccccc4c3CCN2C(=O)Cc2cccs2)c1 (centres undefined) | 1180 s |
| Cc1ccc(-n2nc(C(=O)N3CCN(c4ccccn4)CC3)c(=O)n(C)c2=O)cc1 | 625 s |
| COc1ccc(CC(=O)Nc2ccc(-c3nc(Cn4nc(C)cc4C)c(C)o3)cc2)cc1 | 903 s |
| Cc1nc(C2(C)CCN(S(=O)(=O)c3ccc(C(C)(C)C)cc3)CC2)no1 | 1080 s |
| CCC(=O)N1CCC2(CC1)NCc1ccccc1-n1ccnc12 | 562 s |
| Cc1ccc(S(=O)(=O)N2CCC(C(=O)NCc3csc(-c4cccs4)n3)CC2)cc1 | 910 s |
| Cc1nnc2ccc(NC3CC3)nn12 | 628 s |
| CN1C(=O)c2ccccc2Oc2ccc(C(=O)NCc3ccccc3Cl)cc21 | 948 s |
| COc1ccc(-c2nc3ncccn3c2Nc2ccc(OC)c(OC)c2)cc1 | 640 s |
| Cc1ccc(NC(=O)c2csc(-c3cn(C)c4ncccc34)n2)c(F)c1 | 1160 s |
| CCOC(=O)c1c(C)[nH]c(C)c1S(=O)(=O)N1CCC(C(=O)Nc2cc(Cl)ccc2C)CC1 | 890 s |
| CCc1nc(-c2cc(S(=O)(=O)N3CCC(C(=O)NCc4ccco4)CC3)c(C)s2)no1 | 932 s |
| COC(=O)c1[nH]c(C)c(C(=O)C(C)N(CC2CCCCC2)C(=O)c2ccccc2)c1C (centres undefined) | 1050 s |
| CCc1ccc(NC(=O)Cn2nc(N3CCCC(C)C3)c3ccccc3c2=O)cc1 (centres undefined) | 1160 s |
| Cc1cc(C)cc(NC(=O)Cn2c(=O)nc(N3CCCC(C)C3)c3ccccc32)c1 (centres undefined) | 913 s |
| O=C(NC1CC1)C1CCN(c2nc3ccc(-c4cccs4)nc3s2)CC1 | 809 s |
| CCOC(=O)[C@@H](C)NC(=O)C1CCN(S(=O)(=O)c2ccc(C)cc2)CC1 | 787 s |
| Cc1ccc(CNC(=O)c2cc3c(n(-c4ccc(C(F)(F)F)cc4)c2=O)CCCC3=O)o1 | 634 s |
| CCN(C(=O)Cn1cnc2nc3c(cc2c1=O)CCCC3)c1cccc(Cl)c1 | 850 s |
| N#Cc1c(C(F)(F)F)cc(-c2ccccc2)nc1SCCC(N)=O | 839 s |
| CCOc1ccccc1NC(=O)NC1CCN(c2cc(N3CCCC3)cnn2)C1 (centres undefined) | 594 s |

| Compound | RP-LC retention time |
| --- | --- |
| O=C(NCCN1CCOCC1)c1nc2ccccn2c1-c1ccc(Cl)cc1 | 647 s |
| CCOc1ccccc1-c1noc(CN2C(=O)C(C)Oc3ccccc32)n1 (centres undefined) | 1130 s |
| O=C(Cn1c(=O)n(C2CC2)c(=O)c2nscc21)NCc1cccs1 | 670 s |
| COCCNC(=O)c1nc(Nc2ccc(C)cc2)c2ccccc2n1 | 698 s |
| O=C(N1CCC2(CC1)CC(CCOc1ccncc1)CCO2)C1(c2ccccc2)CC1 (centres undefined) | 664 s |
| COc1ccc(CNC(=O)c2cc3c(s2)N(C)CCC3)c(OC)c1 | 926 s |
| O=C(c1cncc(Br)c1)N1CCC(Cc2nnc(-c3ccccc3)o2)CC1 | 782 s |
| CCOC(=O)c1ccc(NC(=O)N2CCCC2c2c(C)noc2C)cc1 (centres undefined) | 801 s |
| O=S(=O)(c1ccc2c(c1)-c1oncc1CO2)N1CCN(c2ccccc2)CC1 | 1030 s |
| COc1ccc(Cl)cc1NS(=O)(=O)c1cc(-c2cc(C(F)(F)F)[nH]n2)sc1C | 1060 s |
| O=C(NCc1cccs1)c1ccc(-n2nc(N3CCCC3)ccc2=O)cc1 | 765 s |
| Cc1cc(=O)n(CC(=O)N2CCOCC2)c(N2CCOCC2)n1 | 534 s |
| CCc1ccc(OCC(=O)Nc2nnc(C3CC(=O)N(c4ccc(Cl)cc4)C3)o2)cc1 (centres undefined) | 888 s |
| CCCn1cc(S(=O)(=O)Nc2ccc(F)cc2C)c2cccnc21 | 926 s |
| Cc1ccc2c(Nc3ccccc3C)c(-c3nc(C)no3)cnc2n1 | 743 s |
| COc1ccc(-c2cn3ccn(-c4ccc(C)cc4C)c(=O)c3n2)cc1OC | 797 s |
| CC(C)n1cnc2cc(CNC(=O)c3ccoc3)ccc21 | 574 s |
| Cc1sc(NC(=O)c2ccccc2F)nc1-c1ccc2c(c1)NC(=O)CO2 | 878 s |
| Cc1cc(S(=O)(=O)N2C[C@H](F)C[C@@H]2C(=O)N2CCOCC2)ccc1Cl | 753 s |
| CCc1nnc2ccc(NC(=O)Nc3ccccc3C)cn12 | 691 s |
| Cc1noc(-c2ccc(OC3CN(C(=O)CC4CCCC4)C3)cc2)n1 | 906 s |
| CC(C)(C)C(=O)Nc1cnc(-c2ccc(F)cc2)nc1 | 960 s |
| CCc1cccc(NC(=O)Cn2nc(N3CCCC(C)C3)c3ccccc3c2=O)c1 (centres undefined) | 1240 s |

| Compound | RP-LC retention time |
| --- | --- |
| CS(=O)(=O)N1CCC(C(=O)Nc2cc(N3CCOCC3)ncn2)CC1 | 563 s |
| Cc1cccc2c(=O)n(C3CCN(S(=O)(=O)c4cccc(Cl)c4)CC3)cnc12 | 1020 s |
| O=C(NCCc1cccnc1)C1CCc2nc(N3CCCC3)ncc2C1 (centres undefined) | 532 s |
| CCC(=O)N1CCc2cc(N3CC(C(=O)Nc4ccc(F)c(F)c4)CC3=O)ccc21 (centres undefined) | 690 s |
| CN(C)C(=O)c1cccc(C(=O)N(C)C)n1 | 541 s |
| CSc1ccc(-c2nc3cnccn3c2Nc2ccc(C(N)=O)cc2)cc1 | 658 s |
| COCc1cc(=O)n(CC(=O)Nc2cc(C(F)(F)F)ccc2Cl)c(N2CCOCC2)n1 | 1060 s |
| O=C(O)c1ccccc1C(=O)Nc1cccc(Cl)c1 | 701 s |
| CCc1ccccc1NC(=O)C1CCN(S(C)(=O)=O)c2cc(Cl)ccc2O1 (centres undefined) | 944 s |
| CCN1CCn2cc(S(=O)(=O)Nc3cc(Cl)ccc3OC)cc2C1=O | 764 s |
| COCCNC(=O)N1CCN(c2cc(-c3cccc(OC)c3)ncn2)CC1 | 593 s |
| COc1ccc(C2(C(=O)N3[C@H]4CC[C@@H]3c3cnc(C)nc3C4)CCCCC2)cc1 | 812 s |
| COC(=O)c1ncn2c1C(=O)N(c1cc(C)cc(C)c1)C(C)(C(=O)NC1CCCC1)C2 (centres undefined) | 734 s |
| Cn1nc(-c2nc(-c3ccccc3)no2)c2c1CCN(C(=O)NC1CCCCC1)C2 | 914 s |
| O=C(NCc1ccc(F)cc1Cl)c1sc2ncccc2c1-n1cccc1 | 1060 s |
| Cc1ccc(-c2cn3c(CC(=O)NC4CCC(C)CC4)csc3n2)cc1C (centres undefined) | 938 s |
| Cc1ncoc1C(=O)N1CC(c2noc(C3CCCN3CC3CC3)n2)C1 (centres undefined) | 559 s |
| CCCN1C(=O)COc2ccc(-c3noc(-c4ccc5cc[nH]c5c4)n3)cc21 | 1110 s |
| O=C(NCC1CCCO1)c1cccn1Cc1noc(-c2ccc(Cl)cc2)n1 (centres undefined) | 943 s |
| Cc1cc(C)c2c(n1)SCCN2C(=O)CCC(=O)NCc1ccccc1C | 700 s |
